Data reported in PMC11927696, “Synthetic mycolates derivatives to decipher protein mycoloylation, a unique post-translational modification in bacteria” (The Journal of Biological Chemistry, 2025).

What was measured:
MytC (MytChis) [1] = biological target: T1, MytC (MytChis) (Corynebacterium glutamicum, UniProt Q8NTG4); experiment: X-ray crystallography, […] Å; type: binding
T1 construct: gene Cgl0343; residues 30-363 seen in crystal

MytC (MytChis) [2] = biological target: T1, MytC (MytChis); experiment: PorA mycoloylation, MALDI-TOF MS; type: biochemical; conditions: PorA acceptor; in combination with TDM/TMM mix, pH 8.0, 37 °C, 3 h
MytA (MytAhis) [3] = biological target: T2, MytA (MytAhis) (Corynebacterium glutamicum, UniProt P0C1D6); experiment: trehalose acylation (trehalose dipalmitate formation), MALDI-TOF MS; type: biochemical; conditions: 1 mM, acts as donor and acceptor, 5 μM MytA, pH 8.0, 37 °C, 3 h
T2 construct: gene csp1

MytA (MytAhis) [4] = biological target: T2, MytA (MytAhis); experiment: trehalose mycoloylation (TDM formation), TLC and MALDI-TOF MS; type: biochemical; conditions: 1 mM, acts as donor and acceptor, 5 μM MytA, pH 8.0, 37 °C, 3 h

T1 sequence (Q8NTG4 entry or part of it): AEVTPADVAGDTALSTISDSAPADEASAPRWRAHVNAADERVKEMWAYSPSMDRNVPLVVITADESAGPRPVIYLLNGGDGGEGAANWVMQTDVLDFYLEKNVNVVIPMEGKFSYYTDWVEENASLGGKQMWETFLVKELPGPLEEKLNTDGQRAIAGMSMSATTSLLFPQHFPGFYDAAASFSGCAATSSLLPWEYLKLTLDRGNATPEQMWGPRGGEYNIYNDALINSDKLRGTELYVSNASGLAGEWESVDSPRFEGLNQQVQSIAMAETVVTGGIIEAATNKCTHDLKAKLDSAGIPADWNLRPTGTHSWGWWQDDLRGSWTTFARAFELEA
T2 sequence (P0C1D6 44-657): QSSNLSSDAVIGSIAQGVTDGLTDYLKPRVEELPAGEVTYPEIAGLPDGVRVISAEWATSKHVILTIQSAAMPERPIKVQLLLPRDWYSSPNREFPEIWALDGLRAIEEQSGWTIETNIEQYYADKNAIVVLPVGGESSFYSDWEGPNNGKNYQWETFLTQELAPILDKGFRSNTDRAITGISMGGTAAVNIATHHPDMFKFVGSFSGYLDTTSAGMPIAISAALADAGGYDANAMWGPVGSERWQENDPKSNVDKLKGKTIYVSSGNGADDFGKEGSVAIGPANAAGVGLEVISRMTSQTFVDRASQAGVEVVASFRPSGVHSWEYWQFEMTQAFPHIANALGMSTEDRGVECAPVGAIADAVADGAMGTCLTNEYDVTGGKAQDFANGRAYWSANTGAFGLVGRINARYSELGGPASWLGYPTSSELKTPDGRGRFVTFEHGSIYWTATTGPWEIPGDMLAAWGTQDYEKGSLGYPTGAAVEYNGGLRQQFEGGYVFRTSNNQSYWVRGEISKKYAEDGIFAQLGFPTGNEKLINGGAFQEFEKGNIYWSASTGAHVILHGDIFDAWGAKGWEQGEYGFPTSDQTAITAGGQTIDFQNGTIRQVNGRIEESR

For `CCCCC[C@@H](O)[C@@H](CCCCC)C(=O)OC[C@H]1O[C@H](O[C@H]2O[C@H](CO)[C@@H](O)[C@H](O)[C@H]2O)[C@H](O)[C@@H](O)[C@@H]1O` [compound 2, TMM-C13:0], which “X-ray crystallography, 2.69 Å” value (MytC (MytChis) [1]; covalent, mycoloyl ester on catalytic S189, co-crystallised, pH 7.1) is on record?
The value was “S189 Oγ atom forms an ester bond with the carbonyl of the analog”.

`CCCCCCCCCCCCCCC[C@@H](O)CC(=O)OC[C@H]1O[C@H](O[C@H]2O[C@H](CO)[C@@H](O)[C@H](O)[C@H]2O)[C@H](O)[C@@H](O)[C@@H]1O` [compound 4, analog 4] was tested. Which “PorA mycoloylation, MALDI-TOF MS” value (MytC (MytChis) [2]) did it give?
The value was “is perfectly used as a substrate to acylate PorA”.

Which “trehalose acylation (trehalose dipalmitate formation), MALDI-TOF MS” value (MytA (MytAhis) [3]) does the source give for `CCCCCCCCCCCCCCCC(=O)OC[C@H]1O[C@H](O[C@H]2O[C@H](CO)[C@@H](O)[C@H](O)[C@H]2O)[C@H](O)[C@@H](O)[C@@H]1O` [compound 6, TMP] here?
The value was “both compounds are efficient substrates of MytA”.

With `CCCCCCCCCCCCCCC[C@@H](O)[C@@H](CCCCCCCCCCCCCC)C(=O)OC[C@H]1O[C@H](O[C@H]2O[C@H](CO)[C@@H](O)[C@H](O)[C@H]2O)[C@H](O)[C@@H](O)[C@@H]1O` [synthetic TMM-C32:0] as the molecule, how does the “trehalose mycoloylation (TDM formation), TLC and MALDI-TOF MS” value (MytA (MytAhis) [4]) read?
The value was “a small amount of TDM is detected on TLC”.

How did the “X-ray crystallography, 2.69 Å” value (MytC (MytChis) [1]; second site, protein surface near active site groove, contacts E225 and D232 of helix α8, crystal with TMM-C13:0) turn out when `OC[C@H]1O[C@H](O[C@H]2O[C@H](CO)[C@@H](O)[C@H](O)[C@H]2O)[C@H](O)[C@@H](O)[C@@H]1O` [trehalose] was run?
Its value is “A trehalose moiety was identified on the surface of MytC”.
